Reference: patent US7632662B2, “Compounds, compositions and methods for producing antioxidants from carnitine” (priority 2002, dated 2009)
Where two headings read alike, the source gives them in different places.

Experiments:
[1] = tested on: canine model of complete, global cerebral ischemia and reperfusion; conditions: versus vehicle-treated control animals; p=0.0037; Rosenthal et al. 1992; cited from earlier work
[2] = tested on: brain PME(s-τc) and PCr levels; experiment: 31P MRSI of brain metabolite levels in two depressed elderly subjects treated with ALCAR for 12 weeks; format: in vivo, human; conditions: for increase of prefrontal PCr levels with ALCAR treatment: prefrontal region
Description: Phosphorus magnetic resonance spectroscopic imaging (^31P MRSI) analysis of two depressed elderly subjects treated with ALCAR for 12 weeks are compared with those of six normal non-demented, non-depressed subjects.
(§1) A twelve-week, open, clinical, ^31P MRSI study design was used to examine the possible effects of ALCAR on brain metabolism and depressive symptomatology in non-demented geriatric major depressive disorder (NDG-MDD). Two depressed, non-demented [Folstein Mini-Mental State Exam (MMSE)>24)] male subjects, were compared with six age, social-economic status, and medically matched non-demented controls (all male, mean age of 73.6±3.6 years, range 69.7-78.2 years). The two elderly depressed subjects completed baseline Structural Clinical Interview of DSM-IV (SCID) I/P version 2.0, HDRS (17 item), MMSE, UKU Side Effect Rating Scale (UKU), and Cumulative Illness Rating Scale (CIRS) to assess medical burden, baseline physical, ECG, and, laboratory tests for hematology, urine analysis, immunopathology, and blood chemistry. Follow-up visits for the depressed subjects were done every other week for 12 weeks. Efficacy (psychiatric evaluation) was assessed by changes in the HDRS which was performed at baseline and every other week for 12 weeks along with secondary measures (MMSE; CIRS; and UKU), whereas the CIRS was performed at baseline, 6, and 12 weeks. Physical examinations and EKGs were performed at baseline, 6, and 12 weeks. The baseline MR evaluation was scheduled and completed prior to the administration of ALCAR. Follow-up MR evaluations were at 6 and 12 weeks. Acetyl-L-carnitine was administered in the form of oral tablets containing 590 mg of acetyl-L-carnitine hydrochloride (500 mg acetyl-L-carnitine). The dosage regimen was fixed at three grams of acetyl-L-carnitine given two tablets three times a day for 12 weeks.
^31P MRSI acquisition—A custom built, doubly tuned transmit/receive volume head coil was used to acquire the ^1H MRI and 2D ^31P MRSI data on a GE Signa 1.5 T whole body MR imager. First, sets of axial and sagittal scout MR images were collected. […] A self-refocused spin echo pulse sequence with an effective flip range of 60° and an echo time of 2.5 ms, was used to acquire the ^31P MRSI (360 mm field of view, 30 mm slice thickness, 8×8 phase encoding steps [45×45×30 mm^3 nominal voxel dimensions], 2 s TR, 1024 data points, 4.0 kHz spectral bandwidth and 16 NEX).
MRSI post-processing and quantification—To optimize the right and left voxel positions for the six regions, the 8×8 ^31P grid was shifted with respect to the anatomical MRI and a mild spatial apodization (i.e., Fermi window with 90% diameter and 5% transition width) was applied prior to the inverse Fourier transform. The remaining processing steps were 100% automated. A 5 Hz exponential apodization was applied and the PME, phosphodiester (PDE), PCr, α-, γ-, and β-ATP, and inorganic orthophosphate (Pi), were modeled in the time domain with exponentially damped sinusoids and by omitting the first 2.75 ms of the free induction decay (FID) using the Marquardt-Levenberg algorithm. This approach ensured that the PME and PDE resonances primarily reflected the freely mobile, short correlation time (s-τc), water soluble PME(s-τc) and PDE(s-τc) metabolites without the influence of relatively broad underlying signals within the PME and PDE spectral region. […]

brain PME levels = experiment: In vivo 31P MRSI in two young subjects with MDD; set-up: species or system human; conditions: 2 young MDD subjects; treatment with ALCAR
Description: As part of an ongoing ^31P-^1H MRSI study of never-medicated, first-episode schizophrenia subjects three ^31P MRSI spectra on 2 MDD subjects (1 person, 1 person, 24∀2.3 years) were obtained. The MDD spectral results are compared with those obtained from 13 controls (6 males; 3 white, 2 African-American, 1 Asian and 7 females; 4 white, 3 African-American; 21∀1.0 years). PME levels in the MDD subjects were increased by approximately 15% (p=0.13) while there were decreases in the levels of PDE (approx. −7%; p=0.08), PCr (approx. −5%, p=0.61), and β-ATP (approx. −3%, p=0.87) (FIG. 6). Treatment with ALCAR lowered PME levels in the MDD subjects.

Aβ(1-40) peptide = target: T1, Aβ(1-40) peptide (Homo sapiens, UniProt P05067); experiment: Acetylation of Aβ(1-40) peptide by ALCAR; format: biochemical
T1 construct: the Aβ(1-40) peptide derived from the ubiquitous protein, amyloid precursor protein
T1 sequence (P05067 672-711 limits assumed): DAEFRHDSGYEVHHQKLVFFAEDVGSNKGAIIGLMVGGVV

[3] = tested on: non-demented geriatric major depressive disorder (NDG-MDD) subjects; experiment: Twelve-week open clinical study of ALCAR in geriatric major depressive disorder: HDRS, CIRS, side effects; format: in vivo, human; conditions: for HDRS score: oral
Description: as §1
The statistical analysis was done using the Statview (SAS Institute, Inc.) software package. The pearson t correlation test used to correlate between variables.

[4] = tested on: geriatric depressed subjects; conditions: cited from earlier work; for day 60 HDRS: 3.0 gm/day
rat brain = experiment: Effect of ALCAR on in vitro 31P MRS brain metabolite and phospholipid levels under normoxia and brief hypoxia; format: in vivo, Fischer 344 rats; conditions: for PCr levels: non-significant; for Phosphatidylserine (PtdS) levels, change: p<0.01
Method: FIG. 4 is a block diagram illustrating an effect of ALCAR on in vitro ^31P MRS α-GP and PCr levels under hypoxic (30 seconds) and normoxic conditions in Fischer 344 rats.
FIG. 5 is a block diagram illustrating an effect of ALCAR on in vitro ^31P MRS phospholipid levels under hypoxic and normoxic conditions in Fischer 344 rats.
The rat brain responds differentially to brief energetic stress (30 seconds of hypoxia) depending on the age of the animal. The effect of ALCAR (75 mg/kg animal weight injected intraperitoneally 1 hour before sacrificing the animal) on both normoxic rat brain and rat brain exposed to brief hypoxia (30 seconds) was investigated (FIGS. x and x). These studies were conducted on aged rats (30 months) to provide possible insights into human aged brain and MDD.

SMILES: CC(=O)O[C@H](CC(=O)[O-])C[N+](C)(C)C [ALCAR, acetyl-L-carnitine]
- neurological deficit scores [1]: significantly lower
- PME(s-τc) levels in the superior temporal regions ([2]; after 12 weeks of ALCAR treatment, compared with normal subjects, p=0.05): elevated
- PCr levels in the prefrontal, basal ganglia and occipital regions ([2]; after 12 weeks of ALCAR treatment, compared with normal subjects, p=0.001, 0.022, 0.027): elevated
- prefrontal PME(s-τc) levels ([2]; baseline 1.5 to 2.0 SD higher than mean of controls, with ALCAR treatment): normalized
- increase of prefrontal PCr levels with ALCAR treatment ([2]; first of the two depressed subjects (respectively)): 27%
- increase of prefrontal PCr levels with ALCAR treatment ([2]; second of the two depressed subjects (respectively)): 31%
- PME levels in the MDD subjects (brain PME levels): lowered
- acetylation of the Aβ(1-40) peptide (Aβ(1-40) peptide): can acetylate lysine 28
- Side effects from ALCAR treatment ([3]; both depressed subjects, 12 weeks, three grams per day): mild
- laboratory exams and EKG ([3]; either depressed subject): No clinically significant abnormalities
- Side effects from ALCAR treatment ([3]; subject #1): dry mouth
- CIRS ([3]; subject #1, 6 weeks, baseline 7): 6
- HDRS score ([3]; subject #1, 6 weeks, baseline 15, three grams acetyl-L-carnitine per day): 1
- CIRS ([3]; subject #1, 12 weeks, baseline 7): 5
- HDRS score ([3]; subject #1, 12 weeks, baseline 15, three grams per day): 0
- Side effects from ALCAR treatment ([3]; subject #2): slight increase in perspiration
- CIRS ([3]; subject #2, 6 weeks, baseline 4): 4
- HDRS score ([3]; subject #2, 6 weeks, baseline 20, three grams per day): 17
- CIRS ([3]; subject #2, 12 weeks, baseline 4): 2
- HDRS score ([3]; subject #2, 12 weeks, baseline 20, three grams per day): 3
- day 60 HDRS ([4]; Bella et al. 1990, baseline HDRS 22, placebo day 60 = 20): 11
- day 60 HDRS ([4]; Fulgente et al. 1990, baseline HDRS 25, placebo day 60 = 22): 12
- HDRS ([4]; Garzya et al. 1990, 1.5 gm/day, ages 70-80 years): significant beneficial effects
- mean cortisol levels and 12 am and 4 pm cortisol levels ([4]; Gecele et al. 1991, 2 gm/day, p<0.001, p<0.001, p<0.01): significant reduction
- HDRS ([4]; Gecele et al. 1991, 2 gm/day, p<0.001): significant improvement
- HDRS scores ([4]; Nasca et al. 1989, day 40 of treatment, baseline HDRS 44.9, p<0.001): significant improvement
- side effects ([4]; Tempesta et al. 1987, 2 gm/day): no reported ALCAR side effects
- HDRS scores ([4]; Tempesta et al. 1987, open label cross over, 2 gm/day, subjects over 70 years): highly effective
- side effects ([4]; Villardita et al. 1983, 1.5 gm/day, 40 days): no side effects
- Hamilton Depressive Rating Scale (HDRS) ([4]; Villardita et al. 1983, 1.5 gm/day, day 40, baseline HDRS 26.3, p<0.001): significant improvement
- tolerability ([4]; randomized double-blind studies, even at the higher dosages (up to 3.0 gm/day)): well tolerated
- Cardiolipin levels (rat brain; ALCAR/hypoxia): non-significantly reduced
- α-GP levels, change compared with controls (rat brain; ALCAR/hypoxia (30 seconds), aged rats (30 months), 75 mg/kg i.p., p=0.01): approximately +80%
- PCr levels (rat brain; ALCAR/hypoxia, p=0.07): decrease
- Phosphatidylserine (PtdS) levels, change (rat brain; ALCAR/hypoxic): approx. −75%
- Cardiolipin levels (rat brain; ALCAR/normoxia): unchanged
- α-GP levels (rat brain; ALCAR/normoxia, aged rats (30 months), 75 mg/kg intraperitoneally 1 hour before sacrifice): did not alter
- PCr levels (rat brain; ALCAR/normoxia): increase
- Phosphatidylserine (PtdS) levels, change (rat brain; ALCAR/normoxia): approx. −50%
